From US8569229B2, “Compositions and methods which modulate G-protein signaling for the treatment of inflammatory disorders such as asthma and allergic conjunctivitis” (The Children's Hospital of Philadelphia, priority 2008, dated 2013)
Ends that are not written are not given here.

Legend:
rabbit ASM tissues [1] = assay: Relaxation responsiveness to isoproterenol in isolated rabbit ASM tissues half-maximally contracted with ACh; details: for effect of pretreatment on PGE2-induced impaired relaxation to isoproterenol: PGE2 100 nM x 24 hr; for relaxation responses to isoproterenol in control serum-exposed tissues pretreated with the agent: control (non-asthmatic) serum, 24 hr; for effect of pretreatment on salmeterol-induced impaired relaxation to isoproterenol: salmeterol 10 μM x 24 hr
rabbit ASM tissues [2] = assay: Constrictor responsiveness to acetylcholine (ACh) in isolated rabbit ASM tissues, isometric tension in organ bath; details: for effect of pretreatment on PGE2-induced increase in constrictor responsiveness to ACh: PGE2 100 nM x 24 hr; for effect of pretreatment on salmeterol-induced increase in constrictor responsiveness to ACh: salmeterol 10 μM x 24 hr
[3] = listed as Gβγ inhibitory peptide
[4] = listed as anti-Gβγ cell-permeable inhibitory peptide
[5] = listed as MPS-conjugated anti-Gβγ peptide
[6] = vehicle-exposed control tissues

## MPS-Phosducin-like protein C terminus (AAVALLPAVLLALLAVTDQLGEDFFAVDLEAFLQEFGLLPEKE; also: MPS attached) [anti-Gβγ peptide]
Rabbit ASM tissues [1]; [3]
  effect of pretreatment on PGE2-induced impaired relaxation to isoproterenol: prevents
  relaxation responses to isoproterenol in control serum-exposed tissues pretreated with the agent: enhances
Rabbit ASM tissues [1]; [4]
  effect of pretreatment on PGE2-induced impaired relaxation to isoproterenol: prevented
Rabbit ASM tissues [1]; listed as Gβγ-inhibitory peptide
  relaxation responses to isoproterenol in control serum-exposed tissues pretreated with the agent: somewhat increased
Rabbit ASM tissues [1]
  effect of pretreatment on salmeterol-induced impaired relaxation to isoproterenol: prevented
Rabbit ASM tissues [1]; [5]
  effect of pretreatment on salmeterol-induced impaired relaxation to isoproterenol: ablated
Rabbit ASM tissues [1]; tissues passively sensitized 24 hr with AS rabbit serum
  effect of pretreatment on impaired relaxation to isoproterenol in allergic asthmatic (AS) serum-exposed tissues: prevented
Rabbit ASM tissues [1]; [6]
  effect of the agent alone on relaxation responses to isoproterenol: no significant effect
Rabbit ASM tissues [2]; [3]
  effect of pretreatment on PGE2-induced increase in constrictor responsiveness to ACh: prevents
Rabbit ASM tissues [2]; [4]
  effect of pretreatment on PGE2-induced increase in constrictor responsiveness to ACh: prevented
Rabbit ASM tissues [2]
  effect of pretreatment on salmeterol-induced increase in constrictor responsiveness to ACh: prevented
Rabbit ASM tissues [2]; [5]
  effect of pretreatment on salmeterol-induced increase in constrictor responsiveness to ACh: ablated
Rabbit ASM tissues [2]; [6]
  effect of the agent alone on constrictor responses to ACh: no significant effect
